Experimental data from patent US20220227729A1, “IDENTIFICATION AND USE OF KRAS INHIBITORS” (Bayer Aktiengesellschaft, priority 2019, published 2022).

Tests used:
[1] = biological target: recombinant kRas mutant (G12C; C51S; C80L; C118S) (Homo sapiens, UniProt P01116, C118S/C51S/C80L/G12C); assay: Covalent binding assay, intact mass LC-MS; details: 25 μM protein, 25 μM compound, room temperature, 2 h
Method: The percentage of covalent adduct formation at KRas G12C was determined by intact mass determination. To this end 25 μM recombinant kRas mutant (G12C; C51S; C80L; C118S) (storage buffer: 50 mM Tris, pH=8; 50 mM NaCl) were incubated with 25 μM of compound (1% v/v final DMSO concentration) at room temperature for 2 h. For LC-MS analysis the reaction was acidified by adding 4 μL of 4% v/v TFA to 20 μL reaction volume.
Liquid chromatography-mass spectrometry (LC-MS) analysis was performed using a Waters SYNAPT G2-S quadrupole time-of-flight mass spectrometer connected to a Waters nanoAcquity UPLC system. Samples were loaded on a 2.1×5 mm mass prep C4 guard column (Waters) and desalted with a short gradient (3 min.) of increasing concentrations of acetonitrile at a flow rate of 100 μL/min. Spectra were analyzed by using MassLynx v4.1 software and deconvoluted with the MaxEnt1 algorithm.
Percent conversion was determined by the ratio of signal intensities of apo-kRas and kRas+inhibitor.

KRAS^G12C = KRAS^G12C (Homo sapiens, UniProt P01116, G12C); assay: KRAS G12C activation by SOS1cat assay (On-assay), HTRF; details: SOS1cat mediated loading of GST-KRAS G12C-GDP with fluorescent GTP analogue; 180 min preincubation; 20° C.; read-out: IC50 value biochemical KRAS^G12C activation assay
Method: (§1) Preparation of test compound dilutions. A 100-fold concentrated solution of the test compound (50 nL) in DMSO was transferred to microtiter test plates (384 or 1,536 wells, Greiner Bio-One, Germany) using either a Hummingbird liquid handler (Digilab, MA, USA) or an Echo acoustic system (Labcyte, CA, USA). Plates were sealed with adhesive foil or heat-sealed and stored at −20° C. until use. Serial dilutions of test compounds were prepared in 100% DMSO using a Precision Pipetting System (BioTek, USA).
(§2) Measurement and evaluation of inhibition data, calculation of IC50 values. Homogeneous time-resolved fluorescence (HTRF) was measured with a PHERAstar reader (BMG, Germany) using the HTRF module (excitation: 337 nm; emission 1: 620 nm, emission 2: 665 nm). The ratio of the emissions at 665 and 620 nm was used as the specific signal for further evaluation. The data were normalized using the controls: DMSO=0% inhibition, inhibition control wells with inhibitor control solution=100% inhibition. Compounds were tested in duplicates at up to 11 concentrations (e.g. 20 μM, 5.7 μM, 1.6 μM, 0.47 μM, 0.13 μM, 38 nM, 11 nM, 3.1 nM, 0.89 nM, 0.25 nM and 0.073 nM). IC50 values were calculated using a four-parameter fit, with a commercial software package (Genedata Screener, Switzerland).
(§3) KRAS^G12C activation by SOS1^cat assay (“On-assay”). This assay quantifies SOS1^cat mediated loading of KRAS^G12C-GDP with a fluorescent GTP analogue. Detection of successful loading was achieved by measuring resonance energy transfer from anti-GST-terbium (FRET donor) bound to GST-KRAS^G12c to the loaded fluorescent GTP analogue (FRET acceptor). The fluorescent GTP analogue EDA-GTP-DY-647P1 [2′/3′-O-(2-aminoethyl-carbamoyl)guanosine-5′-triphosphate labelled with DY-647P1 (Dyomics GmbH, Germany)] was synthesized by Jena Bioscience (Germany) and supplied as a 1 mM aqueous solution. A KRAS^G12C working solution was prepared in assay buffer [10 mM HEPES pH 7.4 (AppliChem), 150 mM NaCl (Sigma), 5 mM MgCl2 (Sigma), 1 mM DTT (Thermo Fisher), 0.05% BSA Fraction V pH 7.0 (ICN Biomedicals), 0.0025% (v/v) Igepal (Sigma)] containing 100 nM GST-KRAS^G12C and 2 nM anti-GST-terbium (Cisbio, France). A SOS1^cat working solution was prepared in assay buffer containing 20 nM SOS1^cat and 200 nM EDA-GTP-DY-647P1. An inhibitor control solution was prepared in assay buffer containing 200 nM EDA-GTP-DY-647P1 without SOS1^cat. All steps of the assay were performed at 20° C. A volume of 2.5 μL of the KRAS^G12C working solution was added to all wells of the test plate using a Multidrop dispenser (Thermo LabSystems). After 180 min, 2.5 μL of the SOS1^cat working solution was added to all wells, except for the inhibitor control solution wells. After 30 min incubation, HTRF was measured.

KRAS^WT = KRAS^WT (Homo sapiens, UniProt P01116); assay: Wild-type KRAS activation by SOS1cat assay, HTRF; details: SOS1cat mediated loading of GST-KRAS WT-GDP with fluorescent GTP analogue; 50 nM GST-KRAS WT; read-out: IC50 value biochemical KRAS^wt activation assay
Method: as §1, §2, §3
Wild-type KRAS activation by SOS1^cat assay. This assay quantifies human SOS1^cat mediated loading of wild-type GST-KRAS^WT-GDP with a fluorescent GTP analogue. The assay was performed similar to the KRAS^G12C activation by SOS1^cat assay. GST-KRAS^G12C was replaced by GST-KRAS^WT, which was used at 50 nM final concentration.

SMILES | Covalent Binding Assay (% binding) [1] | IC50 (KRAS^G12C) | IC50 (KRAS^WT)
C=CC(=O)N1CCC(c2cc3ccc(-c4cccc5ncccc45)cc3c(=O)[nH]2)C1 (stereo not shown) [Example 2, 3-[1-(Prop-2-enoyl)pyrrolidin-3-yl]-7-(quinolin-5-yl)isoquinolin-1(2H)-one] | 20% | > 9 µM | 
C=CC(=O)N1CCC(c2cc3ccc(-c4cc(F)cc(F)c4)cc3c(=O)[nH]2)C1 (stereo not shown) [Example 8, 7-(3,5-Difluorophenyl)-3-[1-(prop-2-enoyl)pyrrolidin-3-yl]isoquinolin-1(2H)-one] | 0% |  | 
C=CC(=O)N1CCC(c2cc3ccc(-c4ccc(F)c(OCC)c4F)cc3c(=O)[nH]2)C1 (stereo not shown) [Example 6, 7-(3-Ethoxy-2,4-difluorophenyl)-3-[1-(prop-2-enoyl)pyrrolidin-3-yl]isoquinolin-1(2H)-one] | 3% | > 20 µM | > 20 µM
C=CC(=O)N1CCC(c2cc3ccc(-c4ccc(F)c(F)c4F)cc3c(=O)[nH]2)C1 (stereo not shown) [Example 7, 3-[1-(Prop-2-enoyl)pyrrolidin-3-yl]-7-(2,3,4-trifluorophenyl)isoquinolin-1(2H)-one] | 31% | > 7 µM | > 20 µM
C=CC(=O)N1CCC(c2nc3ccc(-c4cccc5ncccc45)cc3c(=O)[nH]2)C1 (stereo not shown) [Example 14, 2-[1-(Prop-2-enoyl)pyrrolidin-3-yl]-6-(quinolin-5-yl)quinazolin-4(3H)-one] | 22% | > 20 µM | > 20 µM
C=CC(=O)N1CCC(c2cc3ccc(-c4ccccc4CC)cc3c(=O)[nH]2)C1 (stereo not shown) [Example 5, 7-(2-Ethylphenyl)-3-[1-(prop-2-enoyl)pyrrolidin-3-yl]isoquinolin-1(2H)-one] | 60% | 8 µM | 
C=CC(=O)N1CCC(c2cc3cc(OC)c(-c4ncccc4F)cc3c(=O)[nH]2)C1 (stereo not shown) [Example 9, 7-(3-Fluoropyridin-2-yl)-6-methoxy-3-[-1-(prop-2-enoyl)pyrrolidin-3-yl]isoquinolin-1(2H)-one] | 0% | > 20 µM | > 20 µM
C=CC(=O)N1CCC(c2cc3ccc(-c4c(O)cccc4F)cc3c(=O)[nH]2)C1 (stereo not shown) [Example 1, 7-(2-Fluoro-6-hydroxyphenyl)-3-[1-(prop-2-enoyl)pyrrolidin-3-yl]isoquinolin-1(2H)-one] |  | 4.7 µM | 
C=CC(=O)N1CCC(c2cc3ccc(-c4ccc(F)cc4F)cc3c(=O)[nH]2)C1 (stereo not shown) [Example 4, 7-(2,4-Difluorophenyl)-3-[1-(prop-2-enoyl)pyrrolidin-3-yl]isoquinolin-1(2H)-one] |  | 5 µM | 

Other lines, results leading:

Covalent Binding Assay (% binding) [1] | IC50 (KRAS^G12C) | IC50 (KRAS^WT) | SMILES
52% | 7.3 µM | > 20 µM | C=CC(=O)N1CCC(c2nc3ccc(-c4ccccc4CC)cc3c(=O)[nH]2)C1 (stereo not shown) [Example 15, 6-(2-Ethylphenyl)-2-[1-(prop-2-enoyl)pyrrolidin-3-yl]quinazolin-4(3H)-one]
60% | 6.8 µM | > 20 µM | C=CC(=O)N1CCC(c2cc3ncc(-c4ccccc4CC)cc3c(=O)[nH]2)C1 (stereo not shown) [Example 33, 3-(2-Ethylphenyl)-7-[1-(prop-2-enoyl)pyrrolidin-3-yl]-1,6-naphthyridin-5(6H)-one]
80% | 2.8 µM |  | C=CC(=O)N1CCC(c2cc3ncc(-c4c(O)cccc4F)cc3c(=O)[nH]2)C1 (stereo not shown) [Example 29, 3-(2-Fluoro-6-hydroxyphenyl)-7-[1-(prop-2-enoyl)pyrrolidin-3-yl]-1,6-naphthyridin-5(6H)-one]
 | 16 µM |  | C=CC(=O)N1CCC(c2cc3cc(Cl)c(-c4c(O)cccc4F)cc3c(=O)[nH]2)C1 (stereo not shown) [Example 27, 6-Chloro-7-(2-fluoro-6-hydroxyphenyl)-3-[1-(prop-2-enoyl)pyrrolidin-3-yl]isoquinolin-1(2H)-one]
52% | 10 µM | > 20 µM | C=CC(=O)N1CCC(c2cc3ncc(-c4c(F)cccc4OC)cc3c(=O)[nH]2)C1 (stereo not shown) [Example 28, 3-(2-Fluoro-6-methoxyphenyl)-7-[1-(prop-2-enoyl)pyrrolidin-3-yl]-1,6-naphthyridin-5(6H)-one]
0% | > 20 µM | > 20 µM | C=CC(=O)N1CCC(c2nc3ccc(-c4cc(Cl)cc(C#N)c4)cc3c(=O)[nH]2)C1 (stereo not shown) [Example 16, 3-Chloro-5-{4-oxo-2-[1-(prop-2-enoyl)pyrrolidin-3-yl]-3,4-dihydroquinazolin-6-yl}benzonitrile]
0% | > 20 µM | > 20 µM | C=CC(=O)N1CCC(c2cc3ncc(-c4cccnc4N4CCOCC4)cc3c(=O)[nH]2)C1 (stereo not shown) [Example 35, 3-[2-(Morpholin-4-yl)pyridin-3-yl]-7-[1-(prop-2-enoyl)pyrrolidin-3-yl]-1,6-naphthyridin-5(6H)-one]
21% | > 20 µM | > 20 µM | C=CC(=O)N1CCC(c2cc3ncc(-c4ccc(F)c(O)c4)cc3c(=O)[nH]2)C1 (stereo not shown) [Example 37, 3-(4-Fluoro-3-hydroxyphenyl)-7-[1-(prop-2-enoyl)pyrrolidin-3-yl]-1,6-naphthyridin-5(6H)-one]
34% | > 20 µM | > 20 µM | C=CC(=O)N1CCC(c2nc3cc(Cl)c(-c4ccc(F)cc4F)cc3c(=O)[nH]2)C1 (stereo not shown) [Example 23, 7-Chloro-6-(2,4-difluorophenyl)-2-[1-(prop-2-enoyl)pyrrolidin-3-yl]quinazolin-4(3H)-one]
26% | > 20 µM | > 20 µM | C=CC(=O)N1CCC(c2nc3cc(Cl)c(-c4c(F)cccc4OC)cc3c(=O)[nH]2)C1 (stereo not shown) [Example 21, 7-Chloro-6-(2-fluoro-6-methoxyphenyl)-2-[1-(prop-2-enoyl)pyrrolidin-3-yl]quinazolin-4(3H)-one]
 | 4.9 µM |  | C=CC(=O)N1CCC(c2nc3ccc(-c4c(O)cccc4F)cc3c(=O)[nH]2)C1 (stereo not shown) [Example 17, 6-(2-Fluoro-6-hydroxyphenyl)-2-[1-(prop-2-enoyl)pyrrolidin-3-yl]quinazolin-4(3H)-one]
41% | > 19 µM | > 20 µM | C=CC(=O)N1CCC(c2nc3cc(Cl)c(-c4cccc5ncccc45)cc3c(=O)[nH]2)C1 (stereo not shown) [Example 26, 7-chloro-2-[1-(prop-2-enoyl)pyrrolidin-3-yl]-6-(quinolin-5-yl)quinazolin-4(3H)-one]
61% | 1.3 µM |  | C=CC(=O)N1CCC(c2cc3cnc(-c4c(O)cccc4F)cc3c(=O)[nH]2)C1 (stereo not shown) [Example 42, 7-(2-Fluoro-6-hydroxyphenyl)-3-[1-(prop-2-enoyl)pyrrolidin-3-yl]-2,6-naphthyridin-1(2H)-one]
